Experiment [1] has as its system Botryotinia fuckeliana (Botrytis cinerea). Kind of experiment: Botryotinia fuckeliana (Botrytis cinerea) / liquid culture (gray mould). It counts as cell-based. Particulars: liquid culture (Vogels broth), growth inhibition photometrically 3-4 days after application, compared to untreated control. The method, then: (§1) Mycelia fragments or conidia suspensions of a fungus prepared either freshly from liquid cultures of the fungus or from cryogenic storage, are directly mixed into nutrient broth. DMSO solutions of the test compound (max. 10 mg/mL) are diluted with 0.025% Tween20 by a factor of 50 and 10 μL of this solution is pipetted into a microtiter plate (96-well format). The nutrient broth containing the fungal spores/mycelia fragments is then added to give an end concentration of the tested compound. The test plates are incubated in the dark at 24° C. and 96% relative humidity. The inhibition of fungal growth is determined photometrically after 2 to 7 days, depending on the pathosystem, and percent antifungal activity relative to the untreated check is calculated. Conidia of the fungus from cryogenic storage are directly mixed into nutrient broth (Vogels broth). After placing a (DMSO) solution of test compound into a microtiter plate (96-well format), the nutrient broth containing the fungal spores is added. The test plates are incubated at 24° C. and the inhibition of growth is determined photometrically 3-4 days after application.

Experiment [2] concerns Glomerella lagenarium (Colletotrichum lagenarium). Put plainly: Glomerella lagenarium (Colletotrichum lagenarium) / liquid culture (anthracnose). The format is cell-based. Particulars: Colletotrichum orbiculare, liquid culture (PDB), growth inhibition photometrically 3-4 days after application, compared to untreated control. Here is the method:
as §1, with “nutrient broth (PDB potato dextrose broth). After” for “nutrient broth (Vogels broth). After”, “growth is measured photometrically 3-4” for “growth is determined photometrically 3-4”

Experiment [3] relates to Puccinia recondita f. sp. tritici. Kind of experiment: Puccinia recondita f. sp. tritici / wheat / leaf disc curative (brown rust). The format is in vivo. Particulars: 200 ppm, wheat leaf segments cv. Kanzler, applied 1 day after inoculation, compared to untreated control.
The subject of experiment [4] is Blumeria graminis f. sp. tritici (Erysiphe graminis f. sp. tritici). Kind of experiment: Blumeria graminis f. sp. tritici / wheat / leaf disc preventative (powdery mildew on wheat). It counts as in vivo. Particulars: 200 ppm, wheat leaf segments cv. Kanzler, inoculated 1 day after application, compared to untreated control. The method, then: Leaf disks or leaf segments of various plant species are cut from plants grown in a greenhouse. The cut leaf disks or segments are placed in multiwell plates (24-well format) onto water agar. The leaf disks are sprayed with a test solution before (preventative) or after (curative) inoculation. Compounds to be tested are prepared as DMSO solutions (max. 10 mg/mL) which are diluted to the appropriate concentration with 0.025% Tween20 just before spraying. The inoculated leaf disks or segments are incubated under defined conditions (temperature, relative humidity, light, etc.) according to the respective test system. A single evaluation of disease level is carried out 3 to 14 days after inoculation, depending on the pathosystem. Percent disease control relative to the untreated check leaf disks or segments is then calculated. Wheat leaf segments cv. Kanzler are placed on agar in a multiwell plate (24-well format) and sprayed with the formulated test compound diluted in water. […] The inoculated leaf disks are incubated at 20° C. and 60% rh under a light regime of 24 h darkness followed by 12 h light/12 h darkness in a climate chamber and the activity of a compound is assessed as percent disease control compared to untreated when an appropriate level of disease damage appears on untreated check leaf segments (6-8 days after application).

Experiment [5] concerns Phaeosphaeria nodorum (Septoria nodorum). Put plainly: Phaeosphaeria nodorum (Septoria nodorum) / wheat / leaf disc preventative (glume blotch). It counts as in vivo. Particulars: 200 ppm, wheat leaf segments cv. Kanzler, inoculated 2 days after application, compared to untreated control. Here is the method:
Leaf disks or leaf segments of various plant species are cut from plants grown in a greenhouse. The cut leaf disks or segments are placed in multiwell plates (24-well format) onto water agar. The leaf disks are sprayed with a test solution before (preventative) or after (curative) inoculation. Compounds to be tested are prepared as DMSO solutions (max. 10 mg/mL) which are diluted to the appropriate concentration with 0.025% Tween20 just before spraying. The inoculated leaf disks or segments are incubated under defined conditions (temperature, relative humidity, light, etc.) according to the respective test system. A single evaluation of disease level is carried out 3 to 14 days after inoculation, depending on the pathosystem. Percent disease control relative to the untreated check leaf disks or segments is then calculated. Wheat leaf segments cv. Kanzler are placed on agar in a multiwell plate (24-well format) and sprayed with the formulated test compound diluted in water. […] The inoculated test leaf disks are incubated at 20° C. and 75% rh under a light regime of 12 h light/12 h darkness in a climate cabinet and the activity of a compound is assessed as percent disease control compared to untreated when an appropriate level of disease damage appears in untreated check leaf disks (5-7 days after application).

Each structure is given as a SMILES string. A value given as a limit tells only on which side of the number the result lay.

Turning to `COc1nn2c(C(=O)NCC(F)c3ccc(Cl)cc3Cl)c(Oc3cccc(C4CC4)c3)cnc2c1C#N` (stereo not shown) [Compound P-1.18, 3-cyano-6-(3-cyclopropylphenoxy)-N-[2-(2,4-dichlorophenyl)-2-fluoro-ethyl]-2-methoxy-pyrazolo[1,5-a]pyrimidine-7-carboxamide], the inhibition of growth (usually the relative decrease from the control value, in per cent) at 20 ppm in experiment [1] is at least 80%.
In the case of `N#Cc1cc2ncc(Oc3cccc(C4CC4)c3)c(C(=O)NCC(F)c3ccc(Cl)cc3Cl)n2n1` (stereo not shown) [Compound P-1.8, 2-cyano-6-(3-cyclopropylphenoxy)-N-[2-(2,4-dichlorophenyl)-2-fluoro-ethyl]pyrazolo[1,5-a]pyrimidine-7-carboxamide], the inhibition of growth at 20 ppm in experiment [1] and in experiment [2] was at least 80% in each case. For the same molecule, the “control of Puccinia recondita f. sp. tritici” value in experiment [3] was “at least 80%”.
`O=C(NCC(F)c1ccc(Cl)cc1Cl)c1c(Oc2cccc(C3CC3)c2)cnc2ncnn12` (stereo not shown) [Compound P-1.2, 6-(3-cyclopropylphenoxy)-N-[2-(2,4-dichlorophenyl)-2-fluoro-ethyl]-[1,2,4]triazolo[1,5-a]pyrimidine-7-carboxamide]: the inhibition of growth at 20 ppm in experiment [1] and in experiment [2] was at least 80% throughout.
As to `Cc1nn2c(C(=O)NCC(F)c3ccc(Cl)cc3Cl)c(Oc3cccc(C4CC4)c3)cnc2c1C#N` (stereo not shown) [Compound P-1.20, 3-cyano-6-(3-cyclopropylphenoxy)-N-[2-(2,4-dichlorophenyl)-2-fluoro-ethyl]-2-methyl-pyrazolo[1,5-a]pyrimidine-7-carboxamide], the inhibition of growth at 20 ppm in experiment [1] and in experiment [2] was at least 80% each time.
In experiment [1], `Cc1nn2c(C(=O)NCC(F)c3ccc(Cl)cc3Cl)c(Oc3cccc(C4CC4)c3)cnc2c1Cl` (stereo not shown) [Compound P-1.19, 3-chloro-6-(3-cyclopropylphenoxy)-N-[2-(2,4-dichlorophenyl)-2-fluoro-ethyl]-2-methyl-pyrazolo[1,5-a]pyrimidine-7-carboxamide] gave an inhibition of growth at 20 ppm of at least 80%.
Take `Cc1cnn2c(C(=O)NCC(F)c3ccc(Cl)cc3Cl)c(Oc3cccc(C4CC4)c3)cnc12` (stereo not shown) [Compound P-1.11, 6-(3-cyclopropylphenoxy)-N-[2-(2,4-dichlorophenyl)-2-fluoro-ethyl]-3-methyl-pyrazolo[1,5-a]pyrimidine-7-carboxamide]: the inhibition of growth at 20 ppm in experiment [1] and in experiment [2] was at least 80% in each case.
On to `O=C(NCC(F)c1ccc(Cl)cc1Cl)c1c(Oc2cccc(C3CC3)c2)cnc2nccn12` (stereo not shown) [Compound P-1.1, 6-(3-cyclopropylphenoxy)-N-[2-(2,4-dichlorophenyl)-2-fluoro-ethyl]imidazo[1,2-a]pyrimidine-5-carboxamide], for which the inhibition of growth at 20 ppm in experiment [1] and in experiment [2] was at least 80% each time.
Take `O=C(NC[C@H](F)c1ccc(Cl)cc1Cl)c1c(Oc2cccc(C3CC3)c2)cnc2c(Cl)cnn12` (single isomer, unassigned) [Compound P-1.16]: the inhibition of growth at 20 ppm in experiment [1] and in experiment [2] was at least 80% throughout. Besides, the “control of Blumeria graminis f. sp. tritici” value in experiment [4] was “at least 80%”. In addition, the “control of Phaeosphaeria nodorum” value in experiment [5] is recorded as “at least 80%”.
Turning to `Cc1cn2c(C(=O)NCC(F)c3ccc(Cl)cc3Cl)c(Oc3cccc(C4CC4)c3)cnc2n1` (stereo not shown) [Compound P-1.7, 6-(3-cyclopropylphenoxy)-N-[2-(2,4-dichlorophenyl)-2-fluoro-ethyl]-2-methyl-imidazo[1,2-a]pyrimidine-5-carboxamide], the inhibition of growth at 20 ppm in experiment [1] and in experiment [2] was at least 80% throughout.
For `O=C(NCC(F)c1ccc(Cl)cc1Cl)c1c(Oc2cccc(C3CC3)c2)cnn2nccc12` (stereo not shown) [Compound P-1.15, 5-(3-cyclopropylphenoxy)-N-[2-(2,4-dichlorophenyl)-2-fluoro-ethyl]pyrazolo[1,5-b]pyridazine-4-carboxamide], the inhibition of growth at 20 ppm in experiment [1] and in experiment [2] was at least 80% each time.
For the molecule `O=C(NCCc1ccc(Cl)cc1Cl)c1c(Oc2cccc(C3CC3)c2)cnc2nccn12` [Compound P-1.6, 6-(3-cyclopropylphenoxy)-N-[2-(2,4-dichlorophenyl)ethyl]imidazo[1,2-a]pyrimidine-5-carboxamide], the inhibition of growth at 20 ppm in experiment [2] is at least 80%.
`O=C(NCC(F)c1ccc(Cl)cc1Cl)c1c(Oc2cccc(C3CC3)c2)cnc2cc(Cl)nn12` (stereo not shown) [Compound P-1.12, 2-chloro-6-(3-cyclopropylphenoxy)-N-[2-(2,4-dichlorophenyl)-2-fluoro-ethyl]pyrazolo[1,5-a]pyrimidine-7-carboxamide]: the inhibition of growth at 20 ppm in experiment [1] and in experiment [2] was at least 80% in each case.
For the molecule `Cc1nc2ncc(Oc3cccc(C4CC4)c3)c(C(=O)NCC(F)c3ccc(Cl)cc3Cl)n2n1` (stereo not shown) [Compound P-1.14, 6-(3-cyclopropylphenoxy)-N-[2-(2,4-dichlorophenyl)-2-fluoro-ethyl]-2-methyl-[1,2,4]triazolo[1,5-a]pyrimidine-7-carboxamide], the inhibition of growth at 20 ppm in experiment [1] and in experiment [2] was at least 80% throughout.
With `O=C(NCCc1ccc(Cl)cc1Cl)c1c(Oc2cccc(C3CC3)c2)cnc2ncnn12` [Compound P-1.5, 6-(3-cyclopropylphenoxy)-N-[2-(2,4-dichlorophenyl)ethyl]-[1,2,4]triazolo[1,5-a]pyrimidine-7-carboxamide], the inhibition of growth at 20 ppm in experiment [1] is at least 80%.
In the case of `O=C(NCC(F)c1ccc(Cl)cc1Cl)c1c(Oc2cccc(C3CC3)c2)cnc2ccnn12` (stereo not shown) [Compound P-1.3, 6-(3-cyclopropylphenoxy)-N-[2-(2,4-dichlorophenyl)-2-fluoro-ethyl]pyrazolo[1,5-a]pyrimidine-7-carboxamide], the inhibition of growth at 20 ppm in experiment [1] and in experiment [2] was at least 80% each time.
Regarding `O=C(NCC(F)c1ccc(Cl)cc1Cl)c1c(Oc2cccc(C3CC3)c2)cnc2cc(F)nn12` (stereo not shown) [Compound P-1.10, 6-(3-cyclopropylphenoxy)-N-[2-(2,4-dichlorophenyl)-2-fluoro-ethyl]-2-fluoro-pyrazolo[1,5-a]pyrimidine-7-carboxamide], the inhibition of growth at 20 ppm in experiment [1] and in experiment [2] was at least 80% each time.

The values are drawn from patent US20250368652A1, “MICROBIOCIDAL BICYCLIC HETEROCYCLIC CARBOXAMIDE DERIVATIVES” (SYNGENTA CROP PROTECTION AG, priority 2022, published 2025).
